For six compounds, MIC and ED50 results are on record in ChEMBL document CHEMBL1124865, “Synthesis and biological evaluation of a series of parenteral 3'-quaternary ammonium cephalosporins” (J Med Chem, 1990).

≈ marks a conversion by molar mass, not a printed value.

Assay type in all cases: functional
Experiment [1] deals with Escherichia coli. Description: Antibacterial activity against Escherichia coli EC14.
In experiment [2] the test system is Klebsiella pneumoniae. Description: Antibacterial activity against Klebsiella pneumoniae X26.
Experiment [3] has as its system Enterobacter cloacae. The experiment is described as follows: Antibacterial activity against Enterobacter cloacae 265A.
Experiment [4] has as its system Pseudomonas aeruginosa. Description: Antibacterial activity against Pseudomonas aeruginosa X528.
For another experiment, the system named is Serratia marcescens. Description: Antibacterial activity against Serratia marcescens SE3.
In experiment [5] the test system is Escherichia coli. Description: In vivo efficacy against Escherichia coli infections in mice.
For experiment [6], the system named is Staphylococcus aureus. The experiment is described as follows: Antibacterial activity against penicillin G susceptible Staphylococcus aureus.
In experiment [7] the test system is Escherichia coli. The experiment is described as follows: In vivo efficacy against Escherichia coli infected mice treated at 1 hr and 5 hr post infection.
For a further experiment, the system named is Streptococcus pyogenes. Description: Antibacterial activity against Streptococcus pyogenes.
The next experiment concerns Enterococcus faecium. Description: Antibacterial activity against Enterococcus faecium. The note with it: Enterococcus faecium; read-out: MIC.
For the next experiment, the system named is Streptococcus pneumoniae. The experiment is described as follows: Antibacterial activity against Streptococcus pneumoniae.
Experiment [8] concerns Enterobacter cloacae. Description: Antibacterial activity against Enterobacter cloacae EB5.
Experiment [9] deals with Staphylococcus aureus. The experiment is described as follows: In vivo efficacy against Staphylococcus aureus infected mice treated at 1 hr and 5 hr post infection.
Experiment [10] deals with Escherichia coli. The experiment is described as follows: Antibacterial activity against Escherichia coli TEM.
The test system of experiment [11] is Staphylococcus aureus. Description: In vivo efficacy against Staphylococcus aureus infections in mice.
The test system of experiment [12] is Pseudomonas aeruginosa. Description: Antibacterial activity against Pseudomonas aeruginosa PS18. As to conditions: Pseudomonas aeruginosa; read-out: MIC.
The test system of experiment [13] is Pseudomonas aeruginosa. The experiment is described as follows: In vivo efficacy against Pseudomonas aeruginosa infections in mice.
For experiment [14], the system named is Pseudomonas aeruginosa. The experiment is described as follows: In vivo efficacy against Pseudomonas aeruginosa infected mice treated at 1 hr and 5 hr post infection.
In experiment [15] the test system is Staphylococcus aureus. Description: Antibacterial activity against penicillin G resistance Staphylococcus aureus.
Experiment [16] concerns Klebsiella pneumoniae. The experiment is described as follows: microbe, parasite or virus in culture.
Description: Antibacterial activity against Klebsiella pneumoniae 1082E
[17] abbreviates: Escherichia coli, read-out: MIC.
Where [18] appears, read: Klebsiella pneumoniae, read-out: MIC.
The mark [19] stands for this setting: Enterobacter cloacae, read-out: MIC.
Setting [20] is: Pseudomonas aeruginosa, read-out: MIC.
Setting [21] is: Serratia marcescens, read-out: MIC.
[22] abbreviates: Staphylococcus aureus, read-out: MIC.
Where [23] appears, read: Escherichia coli, read-out: ED50.
Where [24] appears, read: Streptococcus pyogenes, read-out: MIC.
Where [25] appears, read: Streptococcus pneumoniae, read-out: MIC.
The mark [26] stands for this setting: Staphylococcus aureus, read-out: ED50.
[27] abbreviates: Pseudomonas aeruginosa, read-out: ED50.

Turning to `CO/N=C(\C(=O)N[C@@H]1C(=O)N2C(C(=O)[O-])=C(C[n+]3ccc(C(N)=S)cc3)CS[C@H]12)c1csc(N)n1`, the MIC stood at 0.03 µg/mL (≈ 0.0562 µM) with Escherichia coli [1] (setting [17]); 0.03 µg/mL (≈ 0.0562 µM) in the experiment on Klebsiella pneumoniae [2] (setting [18]); 8 µg/mL (≈ 15 µM) with Enterobacter cloacae [3] (setting [19]); 1 µg/mL (≈ 1.87 µM) with Pseudomonas aeruginosa [4] (setting [20]); 0.06 µg/mL (≈ 0.112 µM) with Serratia marcescens (setting [21]); 0.03 µg/mL (≈ 0.0562 µM) in the experiment on Escherichia coli [5] (setting [17]). Moreover, the MIC was 1 µg/mL (≈ 1.87 µM) in the experiment on Staphylococcus aureus [6] (setting [22]); less than 0.008 µg/mL in the experiment on Streptococcus pyogenes (setting [24]); greater than 128 µg/mL in the experiment with Enterococcus faecium; 0.015 µg/mL (≈ 0.0281 µM) with Streptococcus pneumoniae (setting [25]); 0.125 µg/mL (≈ 0.234 µM) in the experiment on Enterobacter cloacae [8] (setting [19]); 0.03 µg/mL (≈ 0.0562 µM) with Escherichia coli [10] (setting [17]). Besides, the MIC is 1 µg/mL (≈ 1.87 µM) with Staphylococcus aureus [11] (setting [22]); 2 µg/mL (≈ 3.75 µM) in the experiment on Pseudomonas aeruginosa [12]; 8 µg/mL (≈ 15 µM) with Pseudomonas aeruginosa [13] (setting [20]); 2 µg/mL (≈ 3.75 µM) with Staphylococcus aureus [15] (setting [22]); 8 µg/mL (≈ 15 µM) in the experiment with Klebsiella pneumoniae [16] (setting [18]). In addition, the ED50 with Escherichia coli [7] (setting [23]) was less than 0.16 mg/kg; in the experiment on Staphylococcus aureus [9] (setting [26]), 1.4 mg/kg; in the experiment with Pseudomonas aeruginosa [14] (setting [27]), 7.2 mg/kg.

In the case of `CO/N=C(\C(=O)N[C@@H]1C(=O)N2C(C(=O)[O-])=C(C[n+]3cccc4ccc(O)cc43)CS[C@H]12)c1csc(N)n1`, the MIC with Escherichia coli [1] (setting [17]) is 0.06 µg/mL (≈ 0.111 µM); in the experiment on Klebsiella pneumoniae [2] (setting [18]), 0.03 µg/mL (≈ 0.0555 µM); in the experiment on Enterobacter cloacae [3] (setting [19]), 8 µg/mL (≈ 14.8 µM); in the experiment on Pseudomonas aeruginosa [4] (setting [20]), 16 µg/mL (≈ 29.6 µM); in the experiment with Serratia marcescens (setting [21]), 0.5 µg/mL (≈ 0.925 µM); in the experiment on Escherichia coli [5] (setting [17]), 0.06 µg/mL (≈ 0.111 µM). The MIC with Staphylococcus aureus [6] (setting [22]) was 4 µg/mL (≈ 7.4 µM); in the experiment with Streptococcus pyogenes (setting [24]), 0.03 µg/mL (≈ 0.0555 µM); in the experiment with Enterococcus faecium it was greater than 128 µg/mL; in the experiment with Streptococcus pneumoniae (setting [25]), 0.06 µg/mL (≈ 0.111 µM); in the experiment on Enterobacter cloacae [8] (setting [19]), 0.25 µg/mL (≈ 0.462 µM); with Escherichia coli [10] (setting [17]), 0.125 µg/mL (≈ 0.231 µM). Further, the MIC was 4 µg/mL (≈ 7.4 µM) with Staphylococcus aureus [11] (setting [22]); 32 µg/mL (≈ 59.2 µM) in the experiment with Pseudomonas aeruginosa [12]; 16 µg/mL (≈ 29.6 µM) in the experiment with Pseudomonas aeruginosa [13] (setting [20]); 8 µg/mL (≈ 14.8 µM) in the experiment with Staphylococcus aureus [15] (setting [22]); 4 µg/mL (≈ 7.4 µM) with Klebsiella pneumoniae [16] (setting [18]). Also, the values for the ED50 in the experiment with Escherichia coli [7] (setting [23]), in the experiment with Staphylococcus aureus [9] (setting [26]) and in the experiment on Pseudomonas aeruginosa [14] (setting [27]) were 0.05 mg/kg, 4 mg/kg and greater than 50 mg/kg, respectively.

With `CO/N=C(\C(=O)N[C@@H]1C(=O)N2C(C(=O)[O-])=C(C[n+]3ccc(CC(=O)NO)cc3)CS[C@H]12)c1csc(N)n1` (stereo in doubt; 8), the MIC against Pseudomonas aeruginosa [4] came out at 32 µg/mL (≈ 58.4 µM); in the experiment with Serratia marcescens, 0.5 µg/mL (≈ 0.913 µM); in the experiment on Staphylococcus aureus [6], 4 µg/mL (≈ 7.3 µM); against Enterobacter cloacae [8], 0.5 µg/mL (≈ 0.913 µM); against Escherichia coli [10] it was 0.06 µg/mL (≈ 0.11 µM); against Klebsiella pneumoniae [16], 16 µg/mL (≈ 29.2 µM). Further, the ED50 with Escherichia coli [7] was 0.82 mg/kg; with Staphylococcus aureus [9], 2.5 mg/kg; with Pseudomonas aeruginosa [14], greater than 40 mg/kg.

With `CO/N=C(\C(=O)N[C@@H]1C(=O)N2C(C(=O)[O-])=C(C[n+]3cccc(CC(=O)O)c3)CS[C@H]12)c1csc(N)n1` (stereo in doubt; 24), the MIC was determined as 0.125 µg/mL (≈ 0.235 µM) with Escherichia coli [1]; 0.06 µg/mL (≈ 0.113 µM) against Klebsiella pneumoniae [2]; 4 µg/mL (≈ 7.51 µM) in the experiment on Pseudomonas aeruginosa [4]; 0.5 µg/mL (≈ 0.939 µM) in the experiment on Serratia marcescens; 16 µg/mL (≈ 30 µM) with Pseudomonas aeruginosa [13]; 8 µg/mL (≈ 15 µM) in the experiment on Staphylococcus aureus [15]. Also, the MIC in the experiment with Klebsiella pneumoniae [16] amounted to 8 µg/mL (≈ 15 µM). For the same compound, the results for the ED50 with Escherichia coli [7] and with Pseudomonas aeruginosa [14] were 0.09 mg/kg and 17.4 mg/kg, respectively.

With `CO/N=C(\C(=O)N[C@@H]1C(=O)N2C(C(=O)[O-])=C(C[n+]3ccc(CC(=O)NO)cc3)CS[C@H]12)c1csc(N)n1` (stereo in doubt; 13), the MIC against Enterobacter cloacae [3] is 128 µg/mL (≈ 234 µM); with Pseudomonas aeruginosa [4], 16 µg/mL (≈ 29.2 µM); in the experiment with Staphylococcus aureus [11] it was 8 µg/mL (≈ 14.6 µM); with Pseudomonas aeruginosa [13], 64 µg/mL (≈ 117 µM). In addition, the ED50 with Escherichia coli [7] is 0.05 mg/kg; in the experiment on Staphylococcus aureus [9] it was greater than 10 mg/kg; with Pseudomonas aeruginosa [14], 31 mg/kg.

Turning to `CO/N=C(\C(=O)N[C@@H]1C(=O)N2C(C(=O)[O-])=C(C[n+]3cccc(CC(=O)O)c3)CS[C@H]12)c1csc(N)n1` (stereo in doubt; 17), the MIC with Escherichia coli [1] was less than 0.008 µg/mL; against Serratia marcescens, 0.06 µg/mL (≈ 0.113 µM); in the experiment on Escherichia coli [5], 0.03 µg/mL (≈ 0.0563 µM); in the experiment with Staphylococcus aureus [6] it was 8 µg/mL (≈ 15 µM); against Streptococcus pyogenes, 0.03 µg/mL (≈ 0.0563 µM); in the experiment on Streptococcus pneumoniae, 0.03 µg/mL (≈ 0.0563 µM). The MIC turned out to be 0.25 µg/mL (≈ 0.469 µM) against Enterobacter cloacae [8], 8 µg/mL (≈ 15 µM) in the experiment on Staphylococcus aureus [11], 16 µg/mL (≈ 30 µM) with Staphylococcus aureus [15] and 32 µg/mL (≈ 60.1 µM) against Klebsiella pneumoniae [16]. Also, the figures for the ED50 in the experiment on Escherichia coli [7] and in the experiment on Staphylococcus aureus [9] were less than 0.16 mg/kg and 6.2 mg/kg, respectively.
